Where two headings read alike, the source gives them in different places. A value given as a limit tells only on which side of the number the result lay.

Format in all cases: cell-based
Assay [1] deals with KOPTK1 cells, a murine T-cell ALL cell line. Description: cell viability assay, KOPTK1 cells. Conditions: Mus musculus.
The next assay has as its system DHL8 cells. Description: cell viability assay, DHL8 cells. From the text: (§1) FIGS. 1A, 1B, 1C, and 1D show the activity of compounds of the invention, compared to (−)-CR31B and (+)-CR31B in cell viability assays using (A) DHL6 cells, (B) Jurkat cells, (C) DoHH2 cells, and (D) LY8 cells. […] The following table reports the IC50s (in nM) for each lymphoma and leukemia cell type.

Another assay has as its system LY8 cells. Description: cell viability assay, LY8 cells.
Source text: as §1

A further assay has as its system DoHH2 cells. Description: cell viability assay, DoHH2 cells.
Source text: as §1

The next assay concerns Jurkat cells. As to the kind of experiment: cell viability assay, Jurkat cells.
Source text: as §1

For a further assay, the system named is DHL6 cells. As to the kind of experiment: cell viability assay, DHL6 cells.
Source text: as §1

For assay [2], the system named is MOLT-4 (human acute lymphoblastic leukemia [ALL]). As to the kind of experiment: cell viability assay, MOLT-4 cancer cells. Conditions: MOLT-4 T-ALL cells, 72 hours of exposure, cell titer glow reagent. Here is the method: (§2) The biological activity of compounds of the invention was evaluated in several assays. In a cell viability assay using cancer and normal cells lines MOLT-4 (human acute lymphoblastic leukemia [ALL]) and MRC-5 (human lung fibroblast), respectively, cell viability was assessed after 72 hours of exposure to a range of concentrations, using cell titer glow reagent from Promega to assess viability.
On the technique in general: In ATP-based viability assays light output follows the ATP content of the culture.

Assay [3] relates to MRC-5 (human lung fibroblast). As to the kind of experiment: cell viability assay, MRC-5 normal cells. The settings on record: MRC5, MRC-5 non-cancer cells, 72 hours of exposure, cell titer glow reagent. As to the method:
as §2

Consider `COc1cc(OC)c2c(c1)OC1(c3ccc(O)cc3)C(c3ccccc3)C(C(N)=O)C(O)C21O` (racemic) [Racemic mixture of Compounds 8 and 9, 1,8b-dihydroxy-3a-(4-hydroxyphenyl)-6,8-dimethoxy-3-phenyl-2,3-dihydro-1H-cyclopenta[b]benzofuran-2-carboxamide], for which the IC50 (in general, the concentration needed to halve the response being measured) stood at 10 nM in assay [1]; 1040 nM in the assay with DHL8 cells; 2910 nM in the assay with LY8 cells; 987 nM in the assay on DoHH2 cells (Homo sapiens, DOHH-2); 1730 nM with Jurkat cells (Homo sapiens); 947 nM with DHL6 cells.

(+)-CR31B [reference compound]: the IC50 with DHL8 cells is 7480 nM; in the assay on LY8 cells, 16500 nM; with DoHH2 cells it was 2530 nM; with Jurkat cells, around 3110 nM; with DHL6 cells, around 4300 nM.

Turning to (−)-CR31B [reference compound], the IC50 in the assay on DHL8 cells is 7.21 nM; in the assay on LY8 cells it was 5.93 nM; in the assay with DoHH2 cells, 7.3 nM; in the assay on Jurkat cells, 6.42 nM; in the assay with DHL6 cells it was 7.62 nM.

Turning to `CONC(=O)[C@H]1[C@@H](O)[C@@]2(O)c3c(OC)cc(OC)cc3O[C@@]2(c2ccc(O)cc2)[C@@H]1c1ccccc1` [Compound 1, (1R,2R,3S,3aR,8bS)-1,8b-dihydroxy-3a-(4-hydroxyphenyl)-N,6,8-trimethoxy-3-phenyl-2,3-dihydro-1Hcyclopenta[b]benzofuran-2-carboxamide], the half-inhibitory concentration (IC50) in assay [2] is 5.3 nM; in assay [1], 50 nM; with DHL8 cells it was 74.9 nM; in the assay with LY8 cells, 38.9 nM; in assay [3] it was above 1000 nM; in the assay on DoHH2 cells (Homo sapiens, DOHH-2), 36.7 nM. In addition, the IC50 in the assay with Jurkat cells (Homo sapiens) was 63 nM; in the assay on DHL6 cells it was 51.5 nM.

(Values after patent publication US12215090B2, “Agents and methods for treating dysproliferative diseases” (Memorial Sloan-kettering Cancer Center, priority 2018, dated 2025).)
